Laboratory results from patent US20250282742A1, “BENZOFURAN DERIVATIVES FOR TARGETING AUTOPHAGY” (Automera PTE. LTD, priority 2024, published 2025).

How the values were obtained:
[1] = target: T1, Recombinant p62 protein (Homo sapiens, UniProt Q13501); assay: Surface plasmon resonance (SPR) compound binding to immobilised p62; conditions: recombinant p62, 15° C
T1 construct: Recombinant p62 protein was buffer exchanged into Biacore SPR running buffer
Experimental: Example 28: Surface Plasmon Resonance (SPR) Analysis
Recombinant p62 protein was buffer exchanged into Biacore SPR running buffer (Cytiva 100671) using the Slide-A-Lyzer Mini Dialysis system 7K MWCO (Thermo Fisher Scientific, Cat no. 69560). The final protein concentration was determined using the Nanodrop One spectrophotometer (Thermo Fisher Scientific, cat no. ND-ONE-W), with calibration for the dialysis buffer.
The prepared protein was diluted in sodium acetate buffer (NaAc, pH 5.5, Cytiva) to concentrations ranging from approximately 0.25-40 μg/mL. Post-immobilization, the protein required approximately 16 hours of equilibration in running buffer supplemented with 1% DMSO at 15° C. to ensure adequate surface equilibration and protein reorganization.
All SPR experiments were conducted at a constant temperature of 15° C. The SPR chip surface was activated using EDC/NHS for a contact time of 6-10 min at a flow rate of 10 μL/min. This was followed by protein immobilization for 2100 seconds and ethanolamine capping for 420 seconds, both at the same flow rate. Immediately after immobilization, the NH2—REEE peptide was analyzed in Single Cycle Kinetics mode (SCK) to verify surface activity, ensuring it binds the sample with the published affinity (−20 μM by SPR).
For general compound binding studies, experiments were performed at 15° C. using a running buffer composed of 10 mM HEPES, 150 mM NaCl, 1 mM DTT, 0.05% Tween 20, and 1% DMSO at pH 7.4. The test compound was initially prepared at a 20 mM concentration in DMSO and subsequently titrated in 2-fold dilutions. For each assay, 2 μL of the compound was mixed with 198 μL of the running buffer, and the mixture was thoroughly pipetted approximately 15 times for homogenization.
A series of blank injections (0 μM concentration) were included for double referencing, with at least 8 or 16 per plate depending on the format. Typical injection parameters were 120 seconds for association and 180 seconds for dissociation at a flow rate of […]. A four-point solvent correction was prepared with DMSO concentrations ranging from 2% to 0.5% in the buffer. Post each compound injection, the system's needles were washed with 50% DMSO.
Analysis of the SPR data was conducted using the Cytiva Evaluation software. The binding levels at the late time-point of each interaction were corrected for reference, then normalized to percentage bound values to account for variations in immobilization levels, protein molecular weight, and compound molecular weight.
Compound binding studies were carried out according to experimental procedures above and SPR % occupancy was determined and summarized in Table 7.

[2] = system: p62 oligomers in HeLa cells; assay: p62 oligomerization assay (Western blot, 24 h treatment); format: cell-based; conditions: fold change of p62 oligomer levels relative to DMSO control
Experimental: (§1) HeLa cells were seeded in 6-well plates (700,000 cells) and allowed to adhere overnight. Media was replaced one hour before administering either vehicle (DMSO) or test compounds. After 24 hours of treatment, the media was discarded, and cells were rinsed once with ice-cold 1×PBS before detached from plates with ice-cold RIPA Lysis and Extraction Buffer (Thermo Fisher Scientific) which was supplemented with protease and phosphatase inhibitors. The resulting cell suspensions were transferred to pre-chilled microcentrifuge tubes, incubated on ice for 20 min with intermittent mixing and then centrifuged at 12,000 rpm for 20 min at 4° C. The supernatants were then aspirated slowly and transferred into new tubes kept on ice. The protein concentration in the samples was determined using BCA kit (Thermo Fisher Scientific) as per manufacturer's instructions.
(§2) For the p62 oligomerization and LC3 lipidation assays, cell lysates were prepared using RIPA buffer supplemented with 2% SDS and benzonase (Sigma). The lysates were then combined with 4× Laemmli protein sample buffer (Bio-Rad), heated at 70° C. for 10 min and subjected to a brief centrifugation of 10-15 seconds.
(§3) For p62 oligomerization and LC3 lipidation assays, lysates containing 30 μg of protein and for BRD4 and FKBP12(F36V) degradation assays, lysates containing 20 μg of protein, were loaded slowly into the wells of 4-20% gradient Tris-glycine gels (Bio-Rad). The gels were run at 100V until completion and transferred onto PVDF membranes. Membranes were blocked using 5% milk in TBS-Tween (0.1%) buffer at room temperature for 1 hour. The membranes were incubated with primary antibody in 5% milk-TBST with shaking, overnight at 4° C. The primary antibodies used were: p62 (Novus Biologicals 2C11, H00008878-MO1), LC3A/B (Cell Signalling Technology D3U4C, 12741S), FKBP12 (Abcam ab24373), BRD4 (Cell Signalling Technology E2A7X, 13440S), GAPDH (Cell Signalling Technology D4C6R, 97166S), and β-Actin (Proteintech 66009-1-Ig). Following primary antibody incubation, membranes were washed thrice with TBST 10 min before and after incubation with secondary-HRP conjugated antibody in 5% milk-TBST for 1 hour at room temperature. The secondary antibodies used were: Anti-Mouse IgG HRP Conjugate (Promega W4021B) and Anti-Rabbit IgG HRP Conjugate (Promega W4011B). For the p62 oligomerization assay, the total protein levels were assessed using Ponceau staining (Thermo Fisher Scientific) of PVDF membrane as per recommendation by manufacturer's guidelines.
(§4) Imaging was acquired using SuperSignal™ West Pico PLUS Chemiluminescent Substrate (Thermo Fisher Scientific) with iBright Invitrogen FL100 imaging system. Band signal intensity, reflective of protein concentrations, were quantified using Invitrogen™ iBright™ Analysis and Image J software.
HeLa cells were treated with compounds for 24 hours to evaluate the effect of these compounds on p62 oligomerisation activity. The resulting changes in levels of p62 oligomers were assessed by Western blotting, as described in experimental procedures. The fold change of p62 oligomer levels induced by compound treatment relative to vehicle control (DMSO) was determined and summarized in Table 8. Specifically, FIGS. 2A-C show Western blot images and their corresponding quantification showing the levels of high molecular weight (100-200 kDa) p62 oligomers by 24 hours compound treatments at listed concentrations, relative to vehicle control (DMSO) in HeLa cells. Protein loading consistencies was assessed by Ponceau staining (not shown).

[3] = system: LC3 protein (LC3-II/LC3-I) in HeLa cells; assay: LC3 lipidation assay (LC3-II/LC3-I, Western blot, 24 h treatment); format: cell-based; conditions: fold change in LC3-II/LC3-I relative to DMSO control
Experimental: as §1, §2, §3, §4
HeLa cells were treated with compounds for 24 hours to evaluate the effect of these compounds on LC3-II/LC3-I levels, a measure of autophagy activation. The changes in levels of LC3-I, LC3-II and β-Actin (loading control) were assessed by Western blotting, as described in experimental procedures. The fold increase of LC3-II/LC3-I levels induced by compound treatment relative to vehicle control (DMSO) was determined and summarized in Table 9. Specifically, FIGS. 3A-C show Western blot images and their corresponding quantification showing the lipidation levels of LC3 protein (LC3-II/LC3-I) by 24 hours compound treatments at listed concentrations, relative to vehicle control (DMSO) in HeLa cells.

[4] = target: T2, BRD4 in HeLa cells (Homo sapiens, UniProt O60885); assay: BRD4 degradation assay (Western blot, 24 h treatment); format: cell-based; conditions: doses up to 10 μM
T2 construct: endogenous in cells; host or cells: HeLa
Experimental: as §1
For the BRD4 degradation assay, cell lysates were prepared with RIPA buffer containing 0.25% SDS. These were mixed with 4× Laemmli protein sample buffer (Bio-Rad) supplemented with beta-mercaptoethaol (355 mM). The lysates were then heated at 95° C. for 5 min, and briefly centrifuged for 10-15 seconds.
For p62 oligomerization and LC3 lipidation assays, lysates containing 30 μg of protein and for BRD4 and FKBP12(F36V) degradation assays, lysates containing 20 μg of protein, were loaded slowly into the wells of 4-20% gradient Tris-glycine gels (Bio-Rad). The gels were run at 100V until completion and transferred onto PVDF membranes. Membranes were blocked using 5% milk in TBS-Tween (0.1%) buffer at room temperature for 1 hour. The membranes were incubated with primary antibody in 5% milk-TBST with shaking, overnight at 4° C. […] For the p62 oligomerization assay, the total protein levels were assessed using Ponceau staining (Thermo Fisher Scientific) of PVDF membrane as per recommendation by manufacturer's guidelines.
as §4
To evaluate levels of protein degradation by compounds 100-103, HeLa cells were treated with the corresponding compounds at doses up to 10 μM for 24 hours. The changes in levels of BRD4 and GAPDH (loading control) were assessed by Western blotting, as described in experimental procedures. Results are summarized in Table 11 below, measured by percentage change in BRD4 levels by compound treatment relative to vehicle (DMSO) control.

T1 sequence (Q13501 whole entry, species assumed): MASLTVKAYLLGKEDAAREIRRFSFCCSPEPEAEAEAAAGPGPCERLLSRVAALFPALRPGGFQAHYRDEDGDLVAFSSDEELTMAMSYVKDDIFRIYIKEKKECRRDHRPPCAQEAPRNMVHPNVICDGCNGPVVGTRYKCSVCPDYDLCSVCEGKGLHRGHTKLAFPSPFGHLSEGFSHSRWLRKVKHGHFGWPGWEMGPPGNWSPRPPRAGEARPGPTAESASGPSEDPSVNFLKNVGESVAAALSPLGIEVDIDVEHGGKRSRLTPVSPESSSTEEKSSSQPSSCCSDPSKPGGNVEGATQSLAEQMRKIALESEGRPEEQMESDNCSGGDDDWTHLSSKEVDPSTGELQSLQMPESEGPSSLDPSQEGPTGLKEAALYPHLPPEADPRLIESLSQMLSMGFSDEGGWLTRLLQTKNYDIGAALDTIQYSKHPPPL

| Compound | receptor occupancy at 100 µM [1] | p62 oligomerization [2] | LC3 lipidation [3] | Degradation (change in BRD4 levels relative to DMSO control) [4] |
| --- | --- | --- | --- | --- |
| CC(C)NCC(O)COc1ccc2cc(Cc3ccccc3)oc2c1 (stereo not drawn) [Compound 9, 1-((2-benzylbenzofuran-6-yl)oxy)-3-(isopropylamino)propan-2-ol] | > 70% | + (< 2-fold change relative to DMSO control) | ++ (> 2-fold change in LC3-II/LC3-I relative to DMSO control) | – |
| Cc1sc2c(c1C)C(c1ccc(Cl)cc1)=N[C@@H](CC(=O)NCCOCCOCCOCCNCc1ccc3cc(Cc4ccccc4)oc3c1)c1nnc(C)n1-2 [compound 100, (S)-N-(1-(2-benzylbenzofuran-6-yl)-5,8,11-trioxa-2-azatridecan-13-yl)-2-(4-(4-chlorophenyl)-2,3,9-trimethyl-6H-thieno[3,2-f][1,2,4]triazolo[4,3-a][1,4]diazepin-6-yl)acetamide] | – | – | – | ++ (> 2-fold change in BRD4 levels relative to DMSO control) |
| OCCNCc1ccc2cc(CCc3ccccc3)oc2c1 [compound 3] | 30 to 70% | ++ (> 2-fold change relative to DMSO control) | ++ (> 2-fold change in LC3-II/LC3-I relative to DMSO control) | – |
| Cc1sc2c(c1C)C(c1ccc(Cl)cc1)=N[C@@H](CC(=O)NCCOCCOCCOCCNCc1ccc3cc(CCc4ccccc4)oc3c1)c1nnc(C)n1-2 [compound 101] | – | – | – | ++ (> 2-fold change in BRD4 levels relative to DMSO control) |
| OC1CC(NCc2ccc3cc(Cc4ccccc4)oc3c2)C1 (stereo not drawn) [compound 10] | 30 to 70% | ++ (> 2-fold change relative to DMSO control) | + (< 2-fold change in LC3-II/LC3-I relative to DMSO control) | – |
| O=C(Nc1ccccc1)c1cc2ccc(CNCCO)cc2o1 [compound 35] | 30 to 70% | + (< 2-fold change relative to DMSO control) | + (< 2-fold change in LC3-II/LC3-I relative to DMSO control) | – |
| CC(C)NCCOCc1ccc2cc(Cc3ccccc3)oc2c1 [Compound 7, N-(2-((2-benzylbenzofuran-6-yl)methoxy)ethyl)propan-2-amine] | 30 to 70% | ++ (> 2-fold change relative to DMSO control) | ++ (> 2-fold change in LC3-II/LC3-I relative to DMSO control) | – |
| OCCNCc1cc(F)c2cc(Cc3ccccc3)oc2c1 [compound 37] | 30 to 70% | ++ (> 2-fold change relative to DMSO control) | ++ (> 2-fold change in LC3-II/LC3-I relative to DMSO control) | – |
| OCCNCc1ccc2cc(Cc3cccc(Cl)c3)oc2c1 [compound 15] | > 70% | ++ (> 2-fold change relative to DMSO control) | + (< 2-fold change in LC3-II/LC3-I relative to DMSO control) | – |
| CNCCOCc1ccc2cc(Cc3ccccc3)oc2c1 [compound 8] | 30 to 70% | ++ (> 2-fold change relative to DMSO control) | + (< 2-fold change in LC3-II/LC3-I relative to DMSO control) | – |
| CC(O)CNCc1ccc2cc(Cc3ccccc3)oc2c1 (stereo not drawn) [compound 5] | 30 to 70% | + (< 2-fold change relative to DMSO control) | + (< 2-fold change in LC3-II/LC3-I relative to DMSO control) | – |
| OCCNCc1ccc2c(Cc3ccccc3)coc2c1 [Compound 43, 2-(((3-benzylbenzofuran-6-yl)methyl)amino)ethan-1-ol] | 30 to 70% | + (< 2-fold change relative to DMSO control) | ++ (> 2-fold change in LC3-II/LC3-I relative to DMSO control) | – |
| Cc1sc2c(c1C)C(c1ccc(Cl)cc1)=N[C@@H](CC(=O)NCCOCCNCc1ccc3cc(Cc4ccccc4)oc3c1)c1nnc(C)n1-2 [compound 102] | – | – | – | + (< 2-fold change in BRD4 levels relative to DMSO control) |
| OCCNCc1ccc2cc(CNC3CCCC(O)C3)oc2c1 (stereo not drawn) [Compound 33, 3-(((6-(((2-hydroxyethyl)amino)methyl)benzofuran-2-yl)methyl)amino)cyclohexan-1-ol] | 30 to 70% | + (< 2-fold change relative to DMSO control) | + (< 2-fold change in LC3-II/LC3-I relative to DMSO control) | – |
| COc1ccc(Cc2cc3ccc(CNCCO)cc3o2)cc1 [compound 17] | 30 to 70% | + (< 2-fold change relative to DMSO control) | + (< 2-fold change in LC3-II/LC3-I relative to DMSO control) | – |
